{"source": "patent US20240050409A1", "about": "“Methods and Compositions for Treating Psychotic Disorders” (SOUND PHARMACEUTICALS INCORPORATED, priority 2014, published 2024)", "key": {"SZ": {"system": "SZ", "details": "in vivo; cited from earlier work"}, "[1]": {"system": "dopamine D2-dependent modulation of EPSPs in PFC pyramidal cells of NVHL rats", "experiment": "Slice electrophysiology: D2 (quinpirole) modulation of EPSPs in PFC layer V pyramidal cells of NVHL rats", "type": "in vivo, Sprague-Dawley rats", "details": "adult NVHL rat PFC slices, quinpirole 5 μM; treatment during development", "procedure": "If juvenile oxidative stress is the cause of physiological anomalies observed in adult NVHL rats, NAC treatment can rescue these alterations. Whole-cell recordings were conducted from pyramidal neurons in adult brain slices containing the medial PFC of SHAM (n=12), NVHL (n=16), and NAC-treated NVHL rats (n=14). As previously shown in adult NVHL rats and other rodent models of schizophrenia (Niwa et al., 2010; Tseng et al., 2008), the dopamine D2-dependent modulation of excitatory postsynaptic potentials (EPSPs) in layer V pyramidal cells was lost in NVHL rats (as shown in FIGS. 13A-C). This loss is likely due to abnormal maturation of PFC interneurons, as the normal adult D2 modulation includes a GABA-A receptor component (Tseng and O'Donnell, 2007), but oxidative stress in pyramidal neurons may also play a role. To determine whether altered PVI-dependent PFC synaptic responses are due to oxidative stress, rats were treated with NAC during development and then tested for D2 modulation of PFC physiology.\nAntioxidant pretreatment regimen: NAC (BioAdvantexPharma, Mississauga, Ontario, Canada) was administered in the drinking water at 900 mg/l. NAC treatment started at P5 or at P35, and previous work in mice has shown that NAC consumed by the dam is transmitted to the pups through her milk (das Neves Duarte et al., 2012). NAC treatment ended at P50. […]"}}, "note": "Entries after “also recorded” stand apart in the source; their conditions may differ.", "data": [{"compound": "CC(=O)N[C@@H](CS)C(=O)O", "note": "[NAC, N-acetyl cysteine]", "values": [{"measurement": "mismatch negativity in SZ", "setting": "SZ", "result": "improved"}, {"measurement": "effect on lost D2 modulation (quinpirole attenuation) of EPSPs", "setting": "[1]", "result": "rescued; also recorded: reverses"}]}]}
